PubChem BioAssay (NCI)
Where “and” joins values, the source holds several entries; their conditions need not be identical. Equal entries are not always repeated.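 48-hour exposure; five concentrations; linearly interpolated endpoints. At the GI50, growth is halved. TGI denotes the concentration required for complete inhibition of growth.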

Columns and labels:
Assay in all cases: NCI-60 cell line screen, 48 h
HCC-2998 colon = system: HCC-2998 colon
SNB-19 CNS = system: SNB-19 CNS
NCI/ADR-RES ovarian = system: NCI/ADR-RES ovarian
MDA-MB-435 = system: MDA-MB-435
LOX IMVI melanoma = system: LOX IMVI melanoma
T-47D breast = system: T-47D breast
IGROV1 ovarian = system: IGROV1 ovarian
TK-10 renal = system: TK-10 renal
HS 578T breast = system: HS 578T breast
NCI-H522 lung = system: NCI-H522 lung

| SMILES | TGI (HCC-2998 colon) | TGI (SNB-19 CNS) | TGI (NCI/ADR-RES ovarian) | TGI (MDA-MB-435) | TGI (LOX IMVI melanoma) | TGI (T-47D breast) | TGI (IGROV1 ovarian) | TGI (TK-10 renal) | TGI (HS 578T breast) | TGI (NCI-H522 lung) | GI50 (SNB-19 CNS) | GI50 (TK-10 renal) | GI50 (HCC-2998 colon) | GI50 (NCI/ADR-RES ovarian) | GI50 (MDA-MB-435) | GI50 (LOX IMVI melanoma) | GI50 (IGROV1 ovarian) | GI50 (HS 578T breast) | GI50 (NCI-H522 lung) | GI50 (T-47D breast) |
| --- | --- | --- | --- | --- | --- | --- | --- | --- | --- | --- | --- | --- | --- | --- | --- | --- | --- | --- | --- | --- |
| NCCCCNOCCCN | > 100 µM | > 100 µM | > 100 µM | > 100 µM | > 100 µM | > 100 µM | > 100 µM | > 100 µM | > 100 µM | > 100 µM | – | – | – | – | – | – | – | – | – | – |
| C/C=C(/CCC1NCCc2c1[nH]c1ccccc21)[Si](C)(C)C (stereo not given) | – | > 100 µM and 27.3 µM | – | – | 15.2 µM | – | > 100 µM and 21.1 µM | > 100 µM and 24.8 µM | – | – | > 100 µM and 13.9 µM | > 100 µM and 12.2 µM | – | – | – | – | – | – | – | – |
| C=CCN1C(=O)NC(=O)/C(=C/c2c3ccccc3cc3ccccc23)C1=O | 28.4 µM | 47.7 µM | – | – | 75.4 µM | – | > 10 µM | 37.4 µM | – | 44.8 µM | – | – | – | – | – | – | – | – | – | – |
| O=c1[nH]c2ccccc2c2oc3ccccc3c12 | > 100 µM | > 100 µM | > 100 µM | > 100 µM | – | > 100 µM | > 100 µM | > 100 µM | > 100 µM | > 100 µM | – | – | – | – | – | – | – | – | – | – |
| O=S1(=O)C(=C(c2ccccc2)c2ccccc2)S(=O)(=O)c2ccccc21 | > 100 µM | > 100 µM | > 100 µM | – | > 100 µM | – | > 100 µM | – | – | > 100 µM | – | – | – | – | – | – | – | – | – | – |
| O=c1c(-c2ccccc2)c(SCCCN2CCCCC2)n(-c2ccccc2)c(=S)n1-c1ccccc1 | 16.8 µM | – | 43.8 µM | 34.5 µM | 32.4 µM | – | 35.7 µM | 37.3 µM | > 100 µM | 41.1 µM | – | – | – | – | – | – | – | – | – | – |
| COC(=O)C(C)NP(=O)(OCc1cccc(Cn2cnc3c(N)ncnc32)c1)Oc1ccccc1 (stereo not given) | 53.7 µM | – | > 100 µM | > 100 µM | > 100 µM | – | > 100 µM | > 100 µM | > 100 µM | > 100 µM | – | > 100 µM | 10.9 µM | > 100 µM | > 100 µM | 48.9 µM | > 100 µM | 32.8 µM | 36 µM | – |
| O=c1c2ccccc2nc2n1CCc1c-2[nH]c2ccccc12 | – | 29.2 µM | 61 µM | – | – | 55.5 µM | 60.6 µM | 63.5 µM | 50.5 µM | – | – | – | – | – | – | – | – | 22.6 µM | – | – |
| CCOC(=O)c1c(Cl)c2c(n1Cc1ccccc1)-c1oncc1CCC2 | – | > 100 µM | > 100 µM | 4.92 µM | > 100 µM | > 100 µM | > 100 µM | > 100 µM | – | – | > 100 µM | > 100 µM | – | 2.83 µM | 1.4 µM | 5.26 µM | 4.39 µM | – | – | 2.69 µM |
| COC(=O)C1=C(O)C(C(=O)OC)[C@@]2(O)[C@@H](C(=O)OC)[C@H](C)C[C@@H]1[C@@H]2C(=O)OC (stereo not given in full) | 30.9 µM | > 100 µM | – | 32.1 µM | > 100 µM | > 100 µM | – | > 100 µM | 54.1 µM | 50.7 µM | – | – | – | – | – | – | – | – | – | – |
| CC(C)(CCCCC(C)(C)NC1=NCCO1)NC1=NCCO1 | > 10 µM | > 10 µM | > 10 µM | > 10 µM | > 10 µM | > 10 µM | > 10 µM | > 10 µM | > 10 µM | > 10 µM | – | – | – | – | – | – | – | – | – | – |
